Results on five compounds are retold here after patent US4518611A, “2-Furylbutyrolactone modulation of the immune system in mammals” (priority 1983, dated 1985).

The test system of one assay is L-1210 leukemia cells. Put plainly: Treatment of L-1210 leukemia in BDF1 mice (T/C ratios). Conditions: 20 mg/kg, seven days. Format: in vivo, mouse. The text has this:
Mice of the BDF1 strain are given in i.p. inoculation of 10^6 L-1210 leukemia cells on day 0. Twenty-four hours later, groups of 7 mice each are started on a nine day treatment regimen of various doses of the compounds of this invention. The experiment is continued according to the guidelines provided under the National Cancer Institute protocol for screening new anti-cancer agents and T/C ratios (median or mean survival time of treated groups over median or mean survival time of controls) are calculated. A T/C value ≥1.25 (or 125%) is considered significant anticancer activity.
Mice of the BDF1 strain, inoculated with L-1210 leukemia cells, are treated for seven days with either 25, 50, 100, 200 or 400 mg/kg of Cpd. 1 or just buffer. The National Cancer Institute protocol for screening new anti-cancer agents is followed and T/C ratios are calculated.
Mice of the BDF1 strain, inoculated with L-1210 leukemia cells, are treated for seven days with either 100 mg/kg of Cpd. 1, 20 mg/kg of 5-flourouracil (5-FU), a known anti-cancer agent, or just buffer. The National Cancer Institute protocol for screening new anti-cancer agents is followed and T/C ratios are calculated.

The next assay has as its system human lymphocytes. Put plainly: In vitro lymphocyte stimulation assay, human lymphocytes. Details: key to Lymphocyte Stimulation Index, PHA / Lymphocyte Stimulation Index, Con-A: LSI = cpm of mitogen-stimulated group / cpm of control group. It counts as cell-based. The method, then: (§1) The purpose of this assay is to challenge lymphocytes in microcultures with one or more polyclonal mitogens at concentrations that will induce mitogenesis within 72 hours of stimulation.
(§2) In the mouse model, spleens are removed from different strains of mice and the spleen cells are teased free and suspended in RPMI-1640 tissue culture medium at a concentration of usually […]. These cells are dispensed at a concentration of 5.0×10^5 cells per microculture well in a 96 well flat bottom 96 well tissue culture plate. All testing of the compounds of this invention or mitogens are done in replicates of 10. The cells are then treated with PHA, Con-A, specific antigens, or buffer only. If in vitro testing is done, varying concentrations of the compounds of this invention or buffer only are added to the cells as well. After treatment with the mitogens and/or compounds of this invention, the cells are incubated for 72 hours. The response of these cells to mitogens and/or the compounds of this invention is assessed using ^14 C-thymidine labeling on the fourth day at a concentration of 0.01 μCi/well. The labeled cells are harvested using a lymphocyte harvestor and placed onto fibrous paper discs. A scintillation cocktail is added to vials containing the discs and the results are obtained using a LKB-liquid scintillation counter (Model 1216/Rackbeta II). The data is expressed as a ratio of the cpm of the mitogen stimulated group to the control (nonmitogen) treated group=lymphocyte stimulation index (LSI).
(§3) The lymphocyte stimulation assay may be performed directly on spleen cells obtained from various strains of mice not treated with the compounds of this invention or on lymphocytes obtained from human […]. […] Alternatively, the mice may be treated in vivo with the compounds of this invention by intraperitoneal multi-dose schedules, followed by sacrifice and harvesting spleen lymphocytes. These cells are then tested for their response to polyclonal mitogens or specific antigens used to immunize the mice. In this system however, no additional compound is added to the in vitro lymphocyte stimulation assay system.
Lymphocytes isolated from 5 human volunteers are treated in vitro with PHA and Con-A and either 0.1, 1, 10, 50, or 100 μg/well of Cpd. 1, 0.1, 1, 10, 50, or 100 μg/well of AA, or buffer.

Assay [1] concerns spleen lymphocytes. As to the kind of experiment: Lymphocyte stimulation assay after in vivo treatment, C57BL/6 mice. Conditions: 4 days. The method, then:
as §1, §2, §3
Two strains of mice, C57BL/6 and BDF1 are treated for seven days with i.p. administration of either 25, 50, 100, 200, or 400 mg/kg of Cpd. 1 or just buffer. This is followed on the eighth day by a lymphocyte stimulation assay.
A comparison is made of the lymphocyte response of C57BL/6 mice treated 4 days with i.p. administration of either 50, 100, 200, 400 or 800 mg/kg of Cpd. 1, 50, 100, 200, 400 or 800 mg/kg of ascorbic acid (AA), or just buffer. This is followed on the fifth day by a lymphocyte stimulation assay.
Two strains of mice, C57BL/6 and BALB/c, are treated 4 days with i.p. administration of either 50, 100, 200, or 400 mg/kg of Cpd. 1, or just buffer. This is followed on the fifth day by a lymphocyte stimulation assay.
C57BL/6 mice were treated with four daily i.p. doses of either 50, 100, 200, or 400 mg/kg of Cpd. 1 or just buffer. On the fifth day a lymphocyte stimulation assay was performed.
Mice of the C57BL/6 strain were tested with i.p. administration of either 100, 200, 400 or 600 mg/kg of Cpd. 1 or just buffer. This was followed by removal of spleens and treatment of lymphocytes therein with mitogens PHA and Con-A.
The compound of Example 2, Cpd. 2, was tested in vivo by using C57BL/6 mice and treating them with […] or just buffer for four consecutive days by the i.p. route. On the fifth day a lymphocyte stimulation assay was performed.

The test system of assay [2] is spleen lymphocytes. As to the kind of experiment: In vitro lymphocyte stimulation assay, C57BL/6 spleen lymphocytes. It counts as cell-based, mouse. The method, then:
as §1, §2, §3
An in vitro lymphocyte stimulation assay is performed directly on normal spleen lymphocytes removed from five normal C57BL/6 mice, using concentrations of Cpd. […] Following three days of incubation the assay is completed.
An in vitro lymphocyte stimulation assay was performed using spleen lymphocytes from normal C57BL/6 mice. The lymphocytes were treated with either 1, 5, 10, 50 or 100 μg/well of Cpd. 1 or buffer.
Cpd. 2 was tested using normal spleen lymphocytes from C57BL/6 mice. A lymphocyte stimulation assay was conducted using either 1, 5, 10, 50, or 100 μg/well […] or just buffer.
Spleen cells from C57BL/6 mice were treated, in vitro, with the crystallizing reagents, succinic acid and succinimide. Since these compounds are spontaneously released from the molecular complex in solution at a molar ratio of 2 moles of Cpds. 1, 2, or 3 per mole of the crystalline reagent, these reagents were treated in the lymphocyte stimulation assay at proper molar concentrations.
The compound of example 3, Cpd. 3, was used to treat C57BL/6 spleen lymphocytes in vitro. The lymphocytes were treated with either 1, 5, 10, 50, or 100 μg/well of Cpd. 3 or just buffer and then a lymphocyte stimulation assay was performed.

Entries after “also recorded” stand apart in the source; their conditions may differ.

For `O=c1[nH]cc(F)c(=O)[nH]1` [5-FU, 5-flourouracil, reference compound], in the assay with L-1210 leukemia cells, the “Median Survival Time” value is given as 30 and the T/C amounted to 1.50.

For the compound `O=C1O[C@H]([C@@H](O)CO)C(O)=C1O` [AA, ascorbic acid, reference compound], the “Lymphocyte Stimulation Index, Con-A” value with human lymphocytes (0.1 μg/well) was determined as 24.37; in the assay on human lymphocytes (1.0 μg/well), 24.76; in the assay on human lymphocytes (10 μg/well) it was 27.35; with human lymphocytes (50 μg/well), 23.31; in the assay with human lymphocytes (100 μg/well) it was 25.18; in the assay on spleen lymphocytes [1] (50 mg/kg i.p.) it was 25.5. The “Lymphocyte Stimulation Index, Con-A” value in the assay on spleen lymphocytes [1] (100 mg/kg i.p.) is on record as 19.8; in the assay on spleen lymphocytes [1] (200 mg/kg i.p.) it was 21.1; in the assay on spleen lymphocytes [1] (400 mg/kg i.p.) it was 17.8; in the assay with spleen lymphocytes [1] (800 mg/kg i.p.), 23.9. Further, the “Lymphocyte Stimulation Index, PHA” value is recorded as 38.29 with human lymphocytes (0.1 μg/well); 34.69 in the assay on human lymphocytes (1.0 μg/well); 35.10 in the assay on human lymphocytes (10 μg/well); 35.93 in the assay with human lymphocytes (50 μg/well); 34.23 with human lymphocytes (100 μg/well); 17.1 in the assay on spleen lymphocytes [1] (50 mg/kg i.p.). The “Lymphocyte Stimulation Index, PHA” value in the assay on spleen lymphocytes [1] (100 mg/kg i.p.) is reported as 17.1; with spleen lymphocytes [1] (200 mg/kg i.p.), 10.0; in the assay with spleen lymphocytes [1] (400 mg/kg i.p.) it was 14.3; in the assay on spleen lymphocytes [1] (800 mg/kg i.p.), 12.1. Besides, the “effect on lymphocyte response (in words)” value with human lymphocytes (in vitro, PHA and Con-A) is “no significant proliferative or anti-proliferative effect”. For the same compound, the “Lymphocyte Stimulation Index, Control (no mitogen)” value in the assay on spleen lymphocytes [1] (50 mg/kg i.p.) is reported as “.56”; with spleen lymphocytes [1] (100 mg/kg i.p.), 1.8; in the assay with spleen lymphocytes [1] (200 mg/kg i.p.) it was 1.3; with spleen lymphocytes [1] (400 mg/kg i.p.), 1.3; with spleen lymphocytes [1] (800 mg/kg i.p.) it was “.50”. Also, in the assay with spleen lymphocytes [1] (i.p., Con-A), the “effect on Con-A response (in words)” value is recorded as “a single stimulation of proliferation did occur at 50 mg/kg”. Also, the “effect on PHA response (in words)” value with spleen lymphocytes [1] (i.p., PHA) is “No statistically significant measurable effect”.

As to `CN1C(=O)CCC1=O.Cc1ccc(C2(O)C(=O)OC3C(O)COC32O)o1.Cc1ccc(C2(O)C(=O)OC3C(O)COC32O)o1` (centres unmarked) [Cpd. 3, 2-furylbutyrolactone:N-methylsuccinimide], the “Lymphocyte Stimulation Index, Control (no mitogen)” value in the assay with spleen lymphocytes [2] (1 μg/well) is given as “.60”; with spleen lymphocytes [2] (5 μg/well), “.64”; with spleen lymphocytes [2] (10 μg/well), “.47”; in the assay on spleen lymphocytes [2] (50 μg/well) it was “.27”; in the assay with spleen lymphocytes [2] (100 μg/well) it was “.25”. Besides, the “Lymphocyte Stimulation Index, PHA” value in the assay with spleen lymphocytes [2] (10 μg/well) turned out to be 24.0. The “effect on Con-A response (in words)” value in the assay with spleen lymphocytes [2] (in vitro, Con-A) was “The 50 μg/well dose slightly stimulated the response to Con-A; also recorded: the 100 μg/well dose suppressed the response”. Moreover, the “effect on PHA response (in words)” value in the assay with spleen lymphocytes [2] (in vitro, PHA) was “The 10 μg/well dose of Cpd. 3 significantly stimulated the response to PHA; also recorded: the 50 and 100 μg/well doses suppressed the response”.

As for `O=C(O)CCC(=O)O` [Succinic Acid, succinic acid, reference compound], in the assay with spleen lymphocytes [2] (in vitro), the “effect on PHA and Con-A mitogenesis (in words)” value is “a decrease in PHA and Con-A mitogenesis with increased succinic acid dosage”.

As to `O=C1CCC(=O)N1` [Succinimide, succinimide, reference compound], the “Lymphocyte Stimulation Index, Control (no mitogen)” value in the assay with spleen lymphocytes [2] (13.92 μg/well) stood at 1.4. Further, the “effect on PHA and Con-A mitogenesis (in words)” value in the assay on spleen lymphocytes [2] (in vitro) is on record as “no significant suppressive or enhancing effect”.
